The values below come from patent US20070213402A1, “Compounds which interact with the thyroid hormone receptor for the treatment of fibrotic disease” (priority 1998, published 2007).

The experiment has as its target T1, androgen receptor (Homo sapiens, UniProt P10275).
T1 construct: expressed in transfected cells; host or cells: CV1 (transformed African Green Monkey kidney cell line)
T1 sequence (P10275 1-920): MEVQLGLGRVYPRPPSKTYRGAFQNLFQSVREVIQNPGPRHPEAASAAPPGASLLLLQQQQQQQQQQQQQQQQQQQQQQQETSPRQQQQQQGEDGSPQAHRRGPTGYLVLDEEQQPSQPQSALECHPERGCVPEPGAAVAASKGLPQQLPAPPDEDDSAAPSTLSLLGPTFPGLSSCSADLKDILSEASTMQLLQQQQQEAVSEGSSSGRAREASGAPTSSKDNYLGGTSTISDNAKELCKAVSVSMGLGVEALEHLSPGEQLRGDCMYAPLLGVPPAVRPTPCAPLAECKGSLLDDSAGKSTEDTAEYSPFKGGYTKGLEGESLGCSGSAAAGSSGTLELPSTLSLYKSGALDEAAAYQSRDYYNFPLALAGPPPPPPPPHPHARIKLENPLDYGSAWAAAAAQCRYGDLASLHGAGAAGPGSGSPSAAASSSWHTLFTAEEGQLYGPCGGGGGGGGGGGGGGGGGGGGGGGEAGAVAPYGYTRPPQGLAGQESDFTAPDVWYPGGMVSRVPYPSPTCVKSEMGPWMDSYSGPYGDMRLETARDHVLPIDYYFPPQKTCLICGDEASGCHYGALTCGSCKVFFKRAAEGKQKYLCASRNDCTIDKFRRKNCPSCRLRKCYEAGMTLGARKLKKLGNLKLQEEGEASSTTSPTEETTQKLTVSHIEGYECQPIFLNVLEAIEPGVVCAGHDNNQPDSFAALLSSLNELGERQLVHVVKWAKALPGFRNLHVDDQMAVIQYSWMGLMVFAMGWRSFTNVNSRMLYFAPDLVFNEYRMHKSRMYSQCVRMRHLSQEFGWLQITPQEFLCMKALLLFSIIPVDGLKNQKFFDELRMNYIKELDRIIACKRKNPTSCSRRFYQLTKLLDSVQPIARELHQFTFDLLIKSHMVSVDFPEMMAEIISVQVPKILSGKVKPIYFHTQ
Briefly: Experiment 2: PGL3MMTV-luciferase transactivation in CV1 cells with androgen receptor (AR). It is filed as cell-based. The settings on record: for % control (AR): Blank = 100. The source says:
Two plasmid constructs were introduced by standard calcium phosphate precipitation of DNA followed by glycerol shock (Ausubel F M, Brent R, Kingston D D, Moore J G et al Current protocols in molecular biology 1994 Greene Publishing Associates/Wiley-Interscience, New York, N.Y.) using a transformed African Green Monkey kidney cell line (CV1) (Schneikert J, Peterziel H, Defossez P-A, Klocker H, de Launoit Y and Cato A C B Androgen receptor-Ets protein interaction is a novel mechanism for steroid hormone-mediated down-modulation of matrix metalloproteinase expression, Journal of Biological Chemistry. Vol 271(39) (pp 23907-23913), 1996).
This experiment was intended to investigate the activation of androgen and corticosteroid receptors by compound I.
CPII was compound II above, clobuzarit, which was used at 10^−7M.

The mark [1] stands for this setting: CPII 10^-7M together with DHT 10^-7M.

Regarding `CC(C)(OCc1ccc(-c2ccc(Cl)cc2)cc1)C(=O)O` [Compound II, 1-[4-(4-chlorophenyl)benzyloxy]-1-methylpropionic acid], for the setting “10^-7M, compared with DHT”, the “activation of androgen receptor-driven transcription, in words” value is “negligible activity”. Under setting [1], the “Raw counts (AR)” value was determined as 1232241 counts and the “% control (AR)” value came to 26574%. Moreover, under “substance alone at 10^-7M”, the “Raw counts (AR)” value is on record as 33130 counts and the “% control (AR)” value is on record as 714%.
